Test results reported in US20110263707A1, “MOSQUITO REPELLENT” (BIO & HNT, INC., priority 2007, published 2011).
Where “and” joins values, the source holds several entries; their conditions need not be identical. Equal values may be shown once.

Test system: Aedes aegypti
Assay: Examination of repellent activity using skin test (treated forearm in cage of mated female mosquitoes)
Type: in vivo
Conditions: for Effective repellency duration (average ± standard deviation): protection time until arm bitten by two cumulative mosquitoes
Description: In this embodiment, Aedes aegypti was used test mosquitoes. The Aedes aegypti was supplied from Korea Research Institute of Bioscience and Biotechnology and reared indoor from generation to generation. The larvae of the Aedes aegypti were reared in a plastic container of 22×14×7 cm containing distilled water with a one to one mixture of chicken feed and yeast. Mosquito pupae were transferred into a paper cup and then placed in a rearing cage to emerge as adults. Here, the rearing cage was constructed with metal net. Males and females of the adult mosquitoes at one to one ratio were put in a rearing cage for two or three days for mating. The female mosquitoes were then used for repellency tests. Eight percent (8%) sugar water was supplied for the adult mosquitoes. The following rearing conditions were maintained: light condition of 16 h:8 h (day:night), temperature of 27±2° C., and relative humidity of 80±10%. In order to examine effectiveness of the mosquito repellents of the prepared sample solutions, one (1) […] of a sample solution was uniformly applied, using a metal rod, on a forearm of a volunteer human test subject between a wrist and an elbow. Thereafter, the arm treated with the test solution was inserted in a bioassay cage constructed with Plexiglass of 50×50×50 cm containing approximately 100 mated female mosquitoes. The number of mosquitoes trying to bite was recorded for three minutes in every thirty minutes for up to 4 hours. The time required to get the arm bitten by two cumulative mosquitoes was regarded as effective repellency duration. A net window of 40×40 cm was present at each side and top of the Plexiglass bioassay cage to allow air ventilation. A 15×15 cm hole was prepared at the front side of the Plexiglass bioassay cage and a long net sleeve was attached to the hole so that the test arm could be put into the cage for repellency test. At the beginning of each repellency test, an arm treated with solvent only was placed in the bioassay cage containing mosquitoes, in order to examine blood feeding activity of the mated female test mosquitoes. This test with the bioassay cage was carried out only when the arm was bitten by at least two mosquitoes for initial three minutes. In Table 3 and Table 4, the repellent efficiency was calculated using the following Equation 1. [formula]

[1] = concentration 2% (0.05 mg/cm^3), 30 minutes
[2] = concentration 2% (0.05 mg/cm^3), 60 minutes
[3] = concentration 2% (0.05 mg/cm^3), 90 minutes
[4] = concentration 2% (0.05 mg/cm^3), 120 minutes
[5] = concentration 2% (0.05 mg/cm^3), 150 minutes
[6] = concentration 2% (0.05 mg/cm^3), 180 minutes
[7] = concentration 2% (0.05 mg/cm^3), 210 minutes
[8] = concentration 2% (0.05 mg/cm^3), 240 minutes
[9] = concentration 2% in 91% isopropyl alcohol (0.05 mg/cm^3)
[10] = concentration 10% (0.25 mg/cm^3), 30 minutes
[11] = concentration 10% (0.25 mg/cm^3), 60 minutes
[12] = concentration 10% (0.25 mg/cm^3), 90 minutes
[13] = concentration 10% (0.25 mg/cm^3), 120 minutes
[14] = concentration 10% (0.25 mg/cm^3), 150 minutes
[15] = concentration 10% (0.25 mg/cm^3), 180 minutes
[16] = concentration 10% (0.25 mg/cm^3), 210 minutes
[17] = concentration 10% (0.25 mg/cm^3), 240 minutes
[18] = concentration 10% in 91% isopropyl alcohol (0.25 mg/cm^3), maximum measurement time 240 minutes

## CCN(CC)C(=O)c1cccc(C)c1 [DEET, N,N-diethyl-m-toluamide]
[1]
  Repellent efficiency (%) per time: 100%
[2]
  Repellent efficiency (%) per time: 0%
[3]
  Repellent efficiency (%) per time: 0%
[4]
  Repellent efficiency (%) per time: 0%
[5]
  Repellent efficiency (%) per time: 0%
[6]
  Repellent efficiency (%) per time: 0%
[7]
  Repellent efficiency (%) per time: 0%
[8]
  Repellent efficiency (%) per time: 0%
[9]
  Effective repellency duration (average ± standard deviation): 70 min and 70 ± 10.0 min
[10]
  Repellent efficiency (%) per time: 100%
[11]
  Repellent efficiency (%) per time: 100%
[12]
  Repellent efficiency (%) per time: 100%
[13]
  Repellent efficiency (%) per time: 100%
[14]
  Repellent efficiency (%) per time: 87.5%
[15]
  Repellent efficiency (%) per time: 81.3%
[16]
  Repellent efficiency (%) per time: 78.1%
[17]
  Repellent efficiency (%) per time: 71.9%
[18]
  Effective repellency duration (average ± standard deviation): 218 min and 218 ± 10.8 min

## CC(C)=CCC/C(C)=C\C(=O)O [Neric acid, (Z,E)-3,7-dimethyl-2,6-octadienoic acid]
[1]
  Repellent efficiency (%) per time: 100%
[2]
  Repellent efficiency (%) per time: 83.1%
[3]
  Repellent efficiency (%) per time: 70.4%
[4]
  Repellent efficiency (%) per time: 52.1%
[5]
  Repellent efficiency (%) per time: 39.4%
[6]
  Repellent efficiency (%) per time: 26.8%
[7]
  Repellent efficiency (%) per time: 18.3%
[8]
  Repellent efficiency (%) per time: 14.1%
[9]
  Effective repellency duration (average ± standard deviation): 106 ± 16.3 min
Concentration 2% in 91% isopropyl alcohol (0.05 mg/cm^3), listed as neric acid
  Effective repellency duration (average ± standard deviation): 106 min
[10]
  Repellent efficiency (%) per time: 100%
[11]
  Repellent efficiency (%) per time: 100%
[12]
  Repellent efficiency (%) per time: 100%
[13]
  Repellent efficiency (%) per time: 100%
[14]
  Repellent efficiency (%) per time: 100%
[15]
  Repellent efficiency (%) per time: 100%
[16]
  Repellent efficiency (%) per time: 100%
[17]
  Repellent efficiency (%) per time: 95.3%
[18]
  Effective repellency duration (average ± standard deviation): 240 ± 0 min
Concentration 10% in 91% isopropyl alcohol (0.25 mg/cm^3), maximum measurement time 240 minutes, listed as neric acid
  Effective repellency duration (average ± standard deviation): 240 min

## CCC(C)OC(=O)N1CCCCC1CCO (centres unmarked) [Picadirin]
[10]
  Repellent efficiency (%) per time: 85.0%
[11]
  Repellent efficiency (%) per time: 85.0%
[12]
  Repellent efficiency (%) per time: 85.0%
[13]
  Repellent efficiency (%) per time: 80.0%
[14]
  Repellent efficiency (%) per time: 75.0%
[15]
  Repellent efficiency (%) per time: 72.5%
[16]
  Repellent efficiency (%) per time: 62.5%
[17]
  Repellent efficiency (%) per time: 47.5%
[18]
  Effective repellency duration (average ± standard deviation): 158 min and 158 ± 27.5 min
